From ChEMBL document CHEMBL2073880, “Heterologous expression of various P-glycoproteins in polarized epithelial cells induces directional transport of small (type 1) and bulky (type 2) cationic drugs” (J Pharmacol Exp Ther, 1998)

Assays:
Type in all cases: functional, cell-based
[1] = molecular target: T1, ATP-dependent translocase ABCB1 (Mus musculus, UniProt P21447); test: TP_TRANSPORTER: transepithelial transport (basal to apical) in Mdr1a-expressing LLC-PK1 cells; conditions: pig
[2] = molecular target: T2, ATP-dependent translocase ABCB1 (Homo sapiens, UniProt P08183); test: TP_TRANSPORTER: transepithelial transport (basal to apical) in MDR1-expressing LLC-PK1 cells; conditions: pig
T2 sequence (P08183 whole entry): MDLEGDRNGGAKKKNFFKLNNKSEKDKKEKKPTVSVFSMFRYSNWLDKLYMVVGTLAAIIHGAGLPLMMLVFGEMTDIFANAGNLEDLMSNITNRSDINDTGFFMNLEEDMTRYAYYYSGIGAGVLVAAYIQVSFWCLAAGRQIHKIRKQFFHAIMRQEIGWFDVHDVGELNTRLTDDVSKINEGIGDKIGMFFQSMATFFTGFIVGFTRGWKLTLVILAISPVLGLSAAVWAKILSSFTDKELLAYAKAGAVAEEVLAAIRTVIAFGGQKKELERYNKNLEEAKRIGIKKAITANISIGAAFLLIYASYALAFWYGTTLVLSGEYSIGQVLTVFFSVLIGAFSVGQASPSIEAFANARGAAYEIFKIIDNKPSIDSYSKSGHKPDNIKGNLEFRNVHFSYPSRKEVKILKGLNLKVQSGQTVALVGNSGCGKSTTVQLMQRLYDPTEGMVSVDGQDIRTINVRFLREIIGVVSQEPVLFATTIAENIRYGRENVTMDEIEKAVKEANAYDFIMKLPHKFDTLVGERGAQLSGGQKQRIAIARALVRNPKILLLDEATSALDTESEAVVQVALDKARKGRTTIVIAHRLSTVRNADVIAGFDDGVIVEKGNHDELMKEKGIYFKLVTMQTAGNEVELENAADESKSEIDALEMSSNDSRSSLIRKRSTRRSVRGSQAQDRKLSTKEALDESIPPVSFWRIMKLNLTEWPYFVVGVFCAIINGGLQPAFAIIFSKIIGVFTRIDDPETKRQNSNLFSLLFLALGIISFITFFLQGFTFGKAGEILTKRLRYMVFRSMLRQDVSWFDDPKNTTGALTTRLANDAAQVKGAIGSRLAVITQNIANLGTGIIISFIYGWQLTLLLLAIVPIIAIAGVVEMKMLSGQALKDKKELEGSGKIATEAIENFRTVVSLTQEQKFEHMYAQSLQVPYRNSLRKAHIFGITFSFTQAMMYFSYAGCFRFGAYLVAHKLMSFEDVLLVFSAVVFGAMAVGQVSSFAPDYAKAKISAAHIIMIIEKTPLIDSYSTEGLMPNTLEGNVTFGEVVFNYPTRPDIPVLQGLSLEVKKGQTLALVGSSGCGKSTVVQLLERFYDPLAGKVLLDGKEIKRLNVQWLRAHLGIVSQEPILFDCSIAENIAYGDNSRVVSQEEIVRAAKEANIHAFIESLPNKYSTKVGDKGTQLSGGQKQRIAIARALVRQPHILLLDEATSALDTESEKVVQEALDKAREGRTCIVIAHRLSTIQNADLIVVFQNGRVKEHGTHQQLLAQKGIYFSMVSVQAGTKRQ

[3] = molecular target: T3, ATP-dependent translocase ABCB1 (Mus musculus, UniProt P06795); test: TP_TRANSPORTER: transepithelial transport (basal to apical) in Mdr1b-expressing LLC-PK1 cells; conditions: pig
T3 sequence (P06795 whole entry): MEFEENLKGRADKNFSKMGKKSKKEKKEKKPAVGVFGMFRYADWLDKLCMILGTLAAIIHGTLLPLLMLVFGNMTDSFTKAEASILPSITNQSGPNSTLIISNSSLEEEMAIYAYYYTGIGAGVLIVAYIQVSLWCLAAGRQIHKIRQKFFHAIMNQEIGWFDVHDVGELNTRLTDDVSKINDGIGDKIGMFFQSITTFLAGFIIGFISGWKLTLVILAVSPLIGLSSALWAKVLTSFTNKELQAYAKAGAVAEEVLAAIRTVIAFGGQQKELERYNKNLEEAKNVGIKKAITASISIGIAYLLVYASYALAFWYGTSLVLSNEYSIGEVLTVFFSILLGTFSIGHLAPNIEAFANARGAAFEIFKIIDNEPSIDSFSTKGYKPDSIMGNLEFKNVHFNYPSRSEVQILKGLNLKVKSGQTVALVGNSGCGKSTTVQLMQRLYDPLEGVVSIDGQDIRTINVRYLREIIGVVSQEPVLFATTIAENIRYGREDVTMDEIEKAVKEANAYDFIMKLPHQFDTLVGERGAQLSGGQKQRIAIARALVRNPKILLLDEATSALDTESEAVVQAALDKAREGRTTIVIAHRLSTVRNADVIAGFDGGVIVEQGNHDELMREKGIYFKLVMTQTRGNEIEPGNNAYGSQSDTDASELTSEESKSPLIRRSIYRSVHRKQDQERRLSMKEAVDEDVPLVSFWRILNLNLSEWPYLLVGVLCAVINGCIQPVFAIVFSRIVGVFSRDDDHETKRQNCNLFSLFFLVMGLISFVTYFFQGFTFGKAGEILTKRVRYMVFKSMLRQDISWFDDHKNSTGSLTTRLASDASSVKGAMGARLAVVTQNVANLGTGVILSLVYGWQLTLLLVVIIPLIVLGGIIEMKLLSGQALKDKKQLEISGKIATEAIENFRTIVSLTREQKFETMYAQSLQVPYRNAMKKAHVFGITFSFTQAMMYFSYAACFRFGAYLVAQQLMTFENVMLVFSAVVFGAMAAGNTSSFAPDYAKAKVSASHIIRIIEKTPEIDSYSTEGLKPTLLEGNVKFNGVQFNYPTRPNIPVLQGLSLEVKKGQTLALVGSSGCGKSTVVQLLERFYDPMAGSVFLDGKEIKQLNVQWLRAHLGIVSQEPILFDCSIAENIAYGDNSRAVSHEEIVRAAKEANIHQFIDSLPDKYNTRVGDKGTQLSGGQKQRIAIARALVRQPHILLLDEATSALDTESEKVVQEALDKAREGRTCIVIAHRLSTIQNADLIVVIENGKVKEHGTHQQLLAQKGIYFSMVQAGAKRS

[4] = molecular target: T2, ATP-dependent translocase ABCB1; test: TP_TRANSPORTER: inhibition of TBuMA transepithelial transport (basal to apical)(TBuMA: 10 uM, Vinblastine: 2 uM) in MDR1-expressing LLC-PK1 cells; conditions: pig, llc-pk1, 2 µM
[5] = molecular target: T3, ATP-dependent translocase ABCB1; test: TP_TRANSPORTER: inhibition of TBuMA transepithelial transport (basal to apical)(TBuMA: 10 uM, Vinblastine: 2 uM) in Mdr1b-expressing LLC-PK1 cells; conditions: pig, llc-pk1, 2 µM
[6] = molecular target: T1, ATP-dependent translocase ABCB1; test: TP_TRANSPORTER: inhibition of TBuMA transepithelial transport (basal to apical)(TBuMA: 10 uM, Vinblastine: 2 uM) in Mdr1a-expressing LLC-PK1 cells; conditions: pig, llc-pk1, 2 µM

T1 sequence (P21447 whole entry): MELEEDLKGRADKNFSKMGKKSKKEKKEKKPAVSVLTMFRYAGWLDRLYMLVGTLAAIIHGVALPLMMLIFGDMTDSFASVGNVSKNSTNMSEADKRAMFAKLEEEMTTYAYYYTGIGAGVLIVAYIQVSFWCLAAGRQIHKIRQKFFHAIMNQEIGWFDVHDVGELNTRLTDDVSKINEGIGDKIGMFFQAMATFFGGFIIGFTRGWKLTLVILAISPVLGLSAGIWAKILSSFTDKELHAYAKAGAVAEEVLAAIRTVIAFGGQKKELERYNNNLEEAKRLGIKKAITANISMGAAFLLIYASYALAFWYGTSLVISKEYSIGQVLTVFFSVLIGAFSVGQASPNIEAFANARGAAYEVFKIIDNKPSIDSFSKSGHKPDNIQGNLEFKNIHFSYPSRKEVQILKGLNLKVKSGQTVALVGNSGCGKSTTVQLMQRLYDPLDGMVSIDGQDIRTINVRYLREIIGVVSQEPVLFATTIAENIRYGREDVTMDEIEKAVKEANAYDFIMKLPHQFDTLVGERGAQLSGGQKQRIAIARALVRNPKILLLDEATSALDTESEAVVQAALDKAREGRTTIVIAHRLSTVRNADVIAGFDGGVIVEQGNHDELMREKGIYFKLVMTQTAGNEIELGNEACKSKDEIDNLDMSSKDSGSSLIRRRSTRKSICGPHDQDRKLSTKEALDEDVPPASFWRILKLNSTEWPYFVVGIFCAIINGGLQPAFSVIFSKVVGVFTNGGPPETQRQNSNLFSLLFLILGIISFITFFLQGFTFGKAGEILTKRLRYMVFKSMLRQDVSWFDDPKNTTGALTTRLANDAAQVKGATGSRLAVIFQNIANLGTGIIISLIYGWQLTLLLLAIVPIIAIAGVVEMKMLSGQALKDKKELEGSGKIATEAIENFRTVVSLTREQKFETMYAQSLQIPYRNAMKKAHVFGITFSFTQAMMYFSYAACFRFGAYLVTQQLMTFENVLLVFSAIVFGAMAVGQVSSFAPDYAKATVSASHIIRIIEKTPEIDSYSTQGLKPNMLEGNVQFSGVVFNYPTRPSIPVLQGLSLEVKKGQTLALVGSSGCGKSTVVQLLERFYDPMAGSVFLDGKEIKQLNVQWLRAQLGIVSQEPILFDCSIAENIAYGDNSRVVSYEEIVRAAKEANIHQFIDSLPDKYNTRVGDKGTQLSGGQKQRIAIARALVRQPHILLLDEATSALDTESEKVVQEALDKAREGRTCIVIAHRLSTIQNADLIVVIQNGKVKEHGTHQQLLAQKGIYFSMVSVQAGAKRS

| Activity [1] | Activity [2] | Activity [3] | Activity [4] | Activity [5] | Activity [6] | SMILES |
| --- | --- | --- | --- | --- | --- | --- |
| substrate [+] | substrate [+] | – | – | – | – | CC[N+](C)(CC)CCNC(=O)c1ccc(N=[N+]=[N-])cc1.[I-] [AZIDOPROCAINAMIDE METHOIODIDE] |
| substrate [+] | substrate [+] | substrate [+] | – | – | – | CCCC[N+](C)(CCCC)CCCC [TRIBUTYLMETHYLAMMONIUM] |
| substrate [+] | substrate [+] | substrate [+] | – | – | – | CC(=O)O[C@H]1C[C@@H]2CC[C@@H]3[C@H](CC[C@@]4(C)[C@H]3C[C@H]([N+]3(C)CCCCC3)[C@@H]4OC(C)=O)[C@@]2(C)C[C@@H]1N1CCCCC1 [VECURONIUM] |
| substrate [+] | – | substrate [+] | inhibitor [+] | inhibitor [+] | inhibitor [+] | CC[C@]1(O)C[C@@H]2CN(CCc3c([nH]c4ccccc34)[C@@](C(=O)OC)(c3cc4c(cc3OC)N(C)[C@H]3[C@@](O)(C(=O)OC)[C@H](OC(C)=O)[C@]5(CC)C=CCN6CC[C@]43[C@@H]65)C2)C1 [VINBLASTINE] |
